Patent US5807535A, “Metal complexes of hydroxyaryl containing aminocarboxylic acid chelating agents” (Australian Nuclear Science & Technology Organisation, priority 1992, dated 1998)
Like-named read-outs stand apart in the source and are kept apart here.

Assay: Biodistribution of 99mTc complexes in rats
Assay type: in vivo, Australian Albino Wistar Rats
Settings: for tissue uptake at 0.5 min / tissue uptake at 1 min / tissue uptake at 0.05 h / tissue uptake at 5 min / tissue uptake at 10 min: rat; for tissue uptake at 0.5 min: 30 sec
Outline: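 Chelators were dissolved in basic saline, brought to about pH 6 with HCl, and reduced with excess stannous chloride before one equivalent volume of sodium 99mTcO4 (10-50 mCi/ml) was added, giving roughly 1 mg/ml chelator. Labelling efficacy was checked by ITLC-SG. Complexes were diluted in saline to 15 μCi/100 μl for rat biodistribution, with tissue uptake expressed as %ID/g.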

[1] = blood, rats, read-out: biodistribution blood
[2] = bone, rats, read-out: biodistribution bone
[3] = brain, rats, read-out: biodistribution brain
[4] = eyes, rats, read-out: biodistribution eyes
[5] = heart, rats, read-out: biodistribution heart
[6] = kidneys, rats, read-out: biodistribution kidneys
[7] = liver, rats, read-out: biodistribution liver
[8] = lungs, rats, read-out: biodistribution lungs
[9] = muscle, rats, read-out: biodistribution muscle
[10] = pancreas, rats, read-out: biodistribution pancreas
[11] = skin, rats, read-out: biodistribution skin
[12] = spleen, rats, read-out: biodistribution spleen
[13] = stomach, rats, read-out: biodistribution stomach
[14] = tail, rats, read-out: biodistribution tail
[15] = thymus, rats, read-out: biodistribution thymus
[16] = thyroid, rats, read-out: biodistribution thyroid
[17] = total git, rats, read-out: biodistribution tot GIT

CC(C)(C)c1ccc(O)c(NC(=O)CN(CCN(CC(=O)O)CC(=O)Nc2cc(C(C)(C)C)ccc2O)CC(=O)O)c1 [Compound 4]
hepatobiliary passage (Tables 2 and 4): specifically traverse the hepatobiliary system
tissue uptake at 0.5 min [1]: 5.84 %ID/g
tissue uptake at 1 min [1]: 3.96 %ID/g
tissue uptake at 0.05 h (blood, rats, 3 minutes, selected data, read-out: Blood): 1.71 %ID/g
tissue uptake at 5 min [1]: 1.33 %ID/g
tissue uptake at 10 min [1]: 0.99 %ID/g
tissue uptake at 0.5 min [2]: 0.61 %ID/g
tissue uptake at 1 min [2]: 0.54 %ID/g
tissue uptake at 0.05 h (bone, rats, 3 min, read-out: biodistribution bone): 0.32 %ID/g
tissue uptake at 5 min [2]: 0.26 %ID/g
tissue uptake at 10 min [2]: 0.19 %ID/g
tissue uptake at 0.5 min [3]: 0.43 %ID/g
tissue uptake at 1 min [3]: 0.26 %ID/g
tissue uptake at 0.05 h (brain, rats, 3 min, read-out: biodistribution brain): 0.12 %ID/g
tissue uptake at 5 min [3]: 0.08 %ID/g
tissue uptake at 10 min [3]: 0.06 %ID/g
tissue uptake at 0.5 min [4]: 0.22 %ID/g
tissue uptake at 1 min [4]: 0.19 %ID/g
tissue uptake at 0.05 h (eyes, rats, 3 min, read-out: biodistribution eyes): 0.15 %ID/g
tissue uptake at 5 min [4]: 0.13 %ID/g
tissue uptake at 10 min [4]: 0.16 %ID/g
tissue uptake at 0.5 min [5]: 1.78 %ID/g
tissue uptake at 1 min [5]: 1.26 %ID/g
tissue uptake at 0.05 h (heart, rats, 3 min, read-out: biodistribution heart): 0.65 %ID/g
tissue uptake at 5 min [5]: 0.48 %ID/g
tissue uptake at 10 min [5]: 0.36 %ID/g
tissue uptake at 0.05 h (kidney, rats, 3 minutes, selected data, read-out: Kidney): 4.54 %ID/g
tissue uptake at 0.5 min [6]: 5.57 %ID/g
tissue uptake at 1 min [6]: 4.86 %ID/g
tissue uptake at 0.05 h (kidneys, rats, 3 min, read-out: biodistribution kidneys): 4.54 %ID/g
tissue uptake at 5 min [6]: 3.89 %ID/g
tissue uptake at 10 min [6]: 2.33 %ID/g
tissue uptake at 0.5 min [7]: 6.83 %ID/g
tissue uptake at 1 min [7]: 8.03 %ID/g
tissue uptake at 0.05 h (liver, rats, 3 minutes, selected data, read-out: Liver): 7.89 %ID/g
tissue uptake at 5 min [7]: 7.39 %ID/g
tissue uptake at 10 min [7]: 4.9 %ID/g
tissue uptake at 0.5 min [8]: 2.37 %ID/g
tissue uptake at 1 min [8]: 1.67 %ID/g
tissue uptake at 0.05 h (lungs, rats, 3 min, read-out: biodistribution lungs): 1 %ID/g
tissue uptake at 5 min [8]: 0.66 %ID/g
tissue uptake at 10 min [8]: 0.53 %ID/g
tissue uptake at 0.5 min [9]: 0.36 %ID/g
tissue uptake at 1 min [9]: 0.29 %ID/g
tissue uptake at 0.05 h (muscle, rats, 3 min, read-out: biodistribution muscle): 0.22 %ID/g
tissue uptake at 5 min [9]: 0.18 %ID/g
tissue uptake at 10 min [9]: 0.13 %ID/g
tissue uptake at 0.5 min [10]: 0.9 %ID/g
tissue uptake at 1 min [10]: 0.69 %ID/g
tissue uptake at 0.05 h (pancreas, rats, 3 min, read-out: biodistribution pancreas): 0.55 %ID/g
tissue uptake at 5 min [10]: 0.32 %ID/g
tissue uptake at 10 min [10]: 0.39 %ID/g
tissue uptake at 0.5 min [11]: 0.53 %ID/g
tissue uptake at 1 min [11]: 0.51 %ID/g
tissue uptake at 0.05 h (skin, rats, 3 min, read-out: biodistribution skin): 0.46 %ID/g
tissue uptake at 5 min [11]: 0.37 %ID/g
tissue uptake at 10 min [11]: 0.36 %ID/g
tissue uptake at 0.5 min [12]: 0.93 %ID/g
tissue uptake at 1 min [12]: 0.8 %ID/g
tissue uptake at 0.05 h (spleen, rats, 3 min, read-out: biodistribution spleen): 0.42 %ID/g
tissue uptake at 5 min [12]: 0.32 %ID/g
tissue uptake at 10 min [12]: 0.27 %ID/g
tissue uptake at 0.5 min [13]: 1.04 %ID/g
tissue uptake at 1 min [13]: 0.95 %ID/g
tissue uptake at 0.05 h (stomach, rats, 3 min, read-out: biodistribution stomach): 3.09 %ID/g
tissue uptake at 5 min [13]: 2.71 %ID/g
tissue uptake at 10 min [13]: 3.8 %ID/g
tissue uptake at 0.5 min [14]: 1.03 %ID/g
tissue uptake at 1 min [14]: 0.53 %ID/g
tissue uptake at 0.05 h (tail, rats, 3 min, read-out: biodistribution tail): 0.39 %ID/g
tissue uptake at 5 min [14]: 1.23 %ID/g
tissue uptake at 10 min [14]: 0.32 %ID/g
tissue uptake at 0.5 min [15]: 0.66 %ID/g
tissue uptake at 1 min [15]: 0.49 %ID/g
tissue uptake at 0.05 h (thymus, rats, 3 min, read-out: biodistribution thymus): 0.31 %ID/g
tissue uptake at 5 min [15]: 0.22 %ID/g
tissue uptake at 10 min [15]: 0.19 %ID/g
tissue uptake at 0.5 min [16]: 3.49 %ID/g
tissue uptake at 1 min [16]: 2.28 %ID/g
tissue uptake at 0.05 h (thyroid, rats, 3 min, read-out: biodistribution thyroid): 1.11 %ID/g
tissue uptake at 5 min [16]: 0.89 %ID/g
tissue uptake at 10 min [16]: 0.79 %ID/g
tissue uptake at 0.5 min [17]: 0.61 %ID/g
tissue uptake at 1 min [17]: 0.74 %ID/g
tissue uptake at 0.05 h (total git, rats, 3 min, read-out: biodistribution tot GIT): 1.59 %ID/g
tissue uptake at 5 min [17]: 2.62 %ID/g
tissue uptake at 10 min [17]: 5.16 %ID/g
tissue uptake at 10 min (urine, rats, read-out: biodistribution urine): 0.08 %ID/g
liver versus kidney uptake (rats): preference for the liver uptake as opposed to the kidney
biodistribution blood (rats, 3 min): 1.71 % Injected dose per gram
biodistribution liver (rats, 3 min): 7.89 % Injected dose per gram
